Experimental data: patent US8754115B2, “Fungicidal pyrazoles” (E I du Pont de Nemours and Company, priority 2010, dated 2014)
Marks after values point to notes of the source that are not given here.

Columns and labels:
Format in all cases: in vivo
[1] = test system: Blumeria graminis f. sp. tritici; experiment: Test F: preventive spray on wheat seedlings, visual disease rating (wheat powdery mildew)
Source text: (§1) General protocol for preparing test suspensions for Tests A-F: the test compounds were first dissolved in acetone in an amount equal to 3% of the final volume and then suspended at the desired concentration (in ppm) in acetone and purified water (50/50 mix by volume) containing 250 ppm of the surfactant Trem® 014 (polyhydric alcohol esters). The resulting test suspensions were then used in Tests A-F. Spraying a 200 ppm test suspension to the point of run-off on the test plants was the equivalent of a rate of 800 g/ha. Unless otherwise indicated, the rating values indicate a 200 ppm test suspension was used. (An asterisk “*” next to the rating value indicates a 40 ppm test suspension was used.)
The test suspension was sprayed to the point of run-off on wheat seedlings. The following day the seedlings were inoculated with a spore dust of Blumeria graminis f. sp. tritici, (also known as Erysiphe graminis f. sp. tritici, the causal agent of wheat powdery mildew) and incubated in a growth chamber at 20° C. for 8 days, after which time visual disease ratings were made.
(§2) Results for Tests A-F are given in Table A. In the Table, a rating of 100 indicates 100% disease control and a rating of 0 indicates no disease control (relative to the controls). A dash (-) indicates no test results. An asterisk “*” next to the rating value indicates a 40 ppm test suspension was used.

Septoria tritici = experiment: Test D: preventive spray on wheat seedlings, visual disease rating (wheat leaf blotch)
Source text: as §1
The test suspension was sprayed to the point of run-off on wheat seedlings. The following day the seedlings were inoculated with a spore suspension of Septoria tritici (the causal agent of wheat leaf blotch) and incubated in saturated atmosphere at 24° C. for 48 h, and then moved to a growth chamber at 20° C. for 19 days, after which time visual disease ratings were made.
as §2

[2] = test system: Puccinia recondite f. sp. tritici; experiment: Test E2: preventive spray on wheat seedlings, visual disease rating (wheat leaf rust)
Source text: as §1
The test suspension was sprayed to the point of run-off on wheat seedlings. The following day the seedlings were inoculated with a spore suspension of Puccinia recondite f. sp. tritici (the causal agent of wheat leaf rust) and incubated in a saturated atmosphere at 20° C. for 24 h, and then moved to a growth chamber at 20° C. for 7 days, after which time visual disease ratings were made.
as §2

Botrytis cinerea = experiment: Test A: preventive spray on tomato seedlings, visual disease rating (tomato Botrytis)
Source text: as §1
The test suspension was sprayed to the point of run-off on tomato seedlings. The following day the seedlings were inoculated with a spore suspension of Botrytis cinerea (the causal agent of tomato Botrytis) and incubated in saturated atmosphere at 20° C. for 48 h, and then moved to a growth chamber at 24° C. for 3 days, after which time visual disease ratings were made.
as §2

[3] = no asterisk: standard test suspension, not 40 ppm
[4] = no asterisk: standard test suspension, not 40 ppm, 100 = 100% disease control, 0 = none
[5] = asterisk: 40 ppm test suspension

SMILES | Test F rating (% disease control) [1, 3] [%] | Test D rating (% disease control) (Septoria tritici; [3]) [%] | Test E2 rating (% disease control) [2, 3] [%] | Test A rating (% disease control) (Botrytis cinerea; [4]) [%] | Test F rating (% disease control) [1, 5] | Test D rating (% disease control) (Septoria tritici; [5]) | Test E2 rating (% disease control) [2, 5] | Test A rating (% disease control) (Botrytis cinerea; [5])
Cc1nn(C)c(-n2ccnc2Cl)c1C(O)c1ccc(F)cc1F (centres unmarked) [compound 151] | 43 | 0 | 99 | 16 |  |  |  | 
Cn1nc(Cl)c(C(O)c2ccc(F)cc2Br)c1-c1c(F)cccc1Cl (centres unmarked) [compound 134] | 99 | 100 | 100 | 100 |  |  |  | 
COc1ccc(C(O)c2c(C)nn(C)c2-c2c(F)cccc2Cl)c(Cl)c1 (centres unmarked) [compound 170] |  |  |  |  | 98* % | 100* % | 100* % | 100* %
Cn1nc(Cl)c(C(O)c2ccc(F)cc2Cl)c1-c1c(F)cccc1Cl (centres unmarked) [compound 135] | 99 | 100 | 100 | 100 |  |  |  | 
Cc1nn(C)c(-c2c(F)cccc2Br)c1C(O)c1ccc(F)cc1Cl (centres unmarked) [compound 94] | 100 | 100 | 100 | 99 |  |  |  | 
Cc1cc(F)ccc1C(O)c1c(Br)nn(C)c1-c1c(F)cccc1F (centres unmarked) [compound 165] | 100 | 100 | 100 | 100 |  |  |  | 
Cn1nc(Cl)c(C(O)c2ccc(F)cc2Br)c1-c1c(F)cccc1F (centres unmarked) [compound 136] | 100 | 100 | 100 | 100 |  |  |  | 
Cc1nn(C)c(-c2c(F)cncc2F)c1C(O)c1ccc(F)cc1Cl (centres unmarked) [compound 166] |  |  |  |  | 93* % | 100* % | 99* % | 99* %
Cc1nn(C)c(-c2c(F)cccc2Cl)c1C(SC#N)c1ccc(F)cc1F (centres unmarked) [Compound 122] |  |  |  |  | 99* % | 100* % | 100* % | 98* %
Cn1nc(Br)c(C(O)c2ccc(Cl)cc2Cl)c1-c1c(F)cccc1F (centres unmarked) [compound 163] | 98 | 100 | 100 | 100 |  |  |  | 
CC(=O)OC(c1ccc(F)cc1Cl)c1c(C)nn(C)c1-c1c(F)cccc1F (centres unmarked) [Compound 108] |  |  |  |  | 100* % | 100* % | 100* % | 99* %
Cn1nc(Br)c(C(O)c2ccc(F)cc2Cl)c1-c1ccc(F)cc1Cl (centres unmarked) [compound 125] | 87 | 100 | 100 | 82 |  |  |  | 
Cc1nn(C)c(-n2ccnc2C)c1C(O)c1ccc(F)cc1F (centres unmarked) [compound 146] | 0 | 18 | 17 | 0 |  |  |  | 
Cc1nn(C)c(-c2c(F)cccc2Br)c1C(=O)c1ccc(F)cc1Cl [compound 93] | 100 | 7 | 91 | 90 |  |  |  | 
Cc1cc(F)ccc1C(O)c1c(C)nn(C)c1-n1ccnc1Cl (centres unmarked) [compound 150] | 0 | 0 | 9 | 8 |  |  |  | 
COc1nn(C)c(-c2ccc(F)cc2Cl)c1C(O)c1ccc(F)cc1Cl (centres unmarked) [compound 118] | 100 | 100 | 99 | 100 |  |  |  | 
Cc1cc(C)n(-c2c(C(O)c3ccc(F)cc3C)c(C)nn2C)n1 (centres unmarked) [compound 158] | 13 | 8 | 0 | 0 |  |  |  | 
COc1cc(F)c(-c2c(C(O)c3ccc(F)cc3Cl)c(C)nn2C)c(F)c1 (centres unmarked) [compound 171] |  |  |  |  | 89* % | 100* % | 100* % | 100* %
Cc1cc(F)ccc1C(O)c1c(C)nn(C)c1-c1c(F)cccc1F (centres unmarked) [compound 129] | 100 | 100 | 99 | 100 |  |  |  | 
Cc1nn(C)c(-c2ccc(F)cc2I)c1C(O)c1ccc(F)cc1Cl (single isomer, unassigned) [compound 104] |  |  |  |  | 72* % | 98* % | 97* % | 0* %
COc1nn(C)c(-c2c(F)cccc2F)c1C(O)c1c(F)ccc(F)c1F (centres unmarked) [compound 138] |  |  |  |  | 93* % | 16* % | 55* % | 66* %
CCOc1nn(C)c(-c2c(F)cccc2F)c1C(O)c1ccc(F)cc1Cl (centres unmarked) [compound 127] | 99 | 100 | 91 | 76 |  |  |  | 
COc1nn(C)c(-c2c(F)cccc2Cl)c1C(O)c1ccc(F)cc1Cl (centres unmarked) [compound 120] | 100 | 100 | 100 | 100 |  |  |  | 
Cc1nn(C)c(-c2ccc(F)cc2)c1C(O)c1ccc(F)cc1Cl (centres unmarked) [compound 105] |  |  |  |  | 81* % | 100* % | 98* % | 0* %
Cc1nn(C)c(-c2c(F)cncc2F)c1C(O)c1ccc(F)cc1F (centres unmarked) [compound 168] |  |  |  |  | 100* % | 100* % | 88* % | 21* %
Cc1nn(C)c(-c2c(F)cccc2Cl)c1C(SC#N)c1c(F)cc(F)cc1F (centres unmarked) [Compound 123] |  |  |  |  | 90* % | 100* % | 99* % | 87* %
Cc1nn(C)c(-c2ccc(Cl)cc2Cl)c1C(O)c1ccc(F)cc1Cl (centres unmarked) [compound 100] | 99 | 100 | 100 |  |  |  |  | 
Cc1nn(C)c(-c2ccc(Cl)cc2Cl)c1C(O)c1ccc(Cl)cc1F (centres unmarked) [compound 101] | 72 | 100 | 99 |  |  |  |  | 
